PubChem BioAssay (NCI)
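Five concentrations, 48 hours, 96-well plates. The concentration for 50% growth inhibition is given as GI50. TGI denotes the concentration required for complete inhibition of growth.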

What was measured:
Test in all cases: NCI-60 cell line screen, 48 h
[1] = test system: HT29 colon
[2] = test system: MALME-3M melanoma
[3] = test system: MDA-MB-435
[4] = test system: MDA-N
[5] = test system: MOLT-4 leukemia
[6] = test system: NCI-H23 lung
[7] = test system: NCI-H460 lung
[8] = test system: OVCAR-3 ovarian
[9] = test system: OVCAR-4 ovarian
[10] = test system: OVCAR-8 ovarian
[11] = test system: PC-3 prostate
[12] = test system: SF-268 CNS
[13] = test system: SF-295 CNS
[14] = test system: SK-MEL-5 melanoma
[15] = test system: SN12C renal
[16] = test system: SNB-19 CNS
[17] = test system: SW-620 colon
[18] = test system: T-47D breast
[19] = test system: UO-31 renal

CC(C)NC(NC(C)C)=C(S(=O)(=O)C(F)(F)C(F)(F)C(F)(F)C(F)(F)F)S(=O)(=O)C(F)(F)C(F)(F)C(F)(F)C(F)(F)F
TGI [1]: > 100 µM
TGI [2]: > 100 µM
TGI [3]: > 100 µM
TGI [4]: > 100 µM
TGI [5]: > 100 µM
TGI [6]: > 100 µM
TGI [7]: > 100 µM
TGI [8]: > 100 µM
TGI [9]: > 100 µM
TGI [10]: > 100 µM
TGI [11]: > 100 µM
TGI [12]: > 100 µM
TGI [13]: > 100 µM
TGI [14]: > 100 µM
TGI [15]: > 100 µM
TGI [16]: > 100 µM
TGI [17]: > 100 µM
TGI [18]: > 100 µM
TGI [19]: > 100 µM

N#CC12CNCC1CN=N2 (stereo unspecified)
TGI [1]: > 100 µM
TGI [2]: > 100 µM
TGI [3]: > 100 µM
TGI [4]: > 100 µM
TGI [5]: > 100 µM
TGI [6]: > 100 µM
TGI [7]: > 100 µM
TGI [8]: > 100 µM
TGI [9]: > 100 µM
TGI [10]: > 100 µM
TGI [11]: > 100 µM
TGI [12]: > 100 µM
TGI [13]: > 100 µM
TGI [14]: > 100 µM
TGI [15]: > 100 µM
TGI [16]: > 100 µM
TGI [17]: > 100 µM
TGI [18]: > 100 µM
TGI [19]: > 100 µM

CN(C)/N=C(/CC(O)(C(F)(F)F)C(F)(F)F)c1ccc([N+](=O)[O-])cc1
TGI [1]: > 100 µM
TGI [2]: > 100 µM
TGI [3]: > 100 µM
TGI [4]: > 100 µM
TGI [5]: > 100 µM
TGI [6]: > 100 µM
TGI [7]: > 100 µM
TGI [8]: > 100 µM
TGI [9]: > 100 µM
TGI [10]: > 100 µM
TGI [11]: > 100 µM
TGI [12]: > 100 µM
TGI [13]: > 100 µM
TGI [14]: > 100 µM
TGI [15]: > 100 µM
TGI [16]: > 100 µM
TGI [17]: > 100 µM
TGI [18]: > 100 µM
TGI [19]: > 100 µM

COc1nc(N=P(c2ccccc2)(c2ccccc2)c2ccccc2)cc(=O)[nH]1
TGI [1]: > 100 µM
TGI [2]: > 100 µM
TGI [3]: > 100 µM
TGI [4]: > 100 µM
TGI [5]: > 100 µM
TGI [6]: > 100 µM
TGI [7]: > 100 µM
TGI [8]: > 100 µM
TGI [9]: > 100 µM
TGI [10]: > 100 µM
TGI [11]: > 100 µM
TGI [12]: > 100 µM
TGI [13]: > 100 µM
TGI [14]: > 100 µM
TGI [15]: > 100 µM
TGI [16]: > 100 µM
TGI [17]: > 100 µM
TGI [18]: > 100 µM
TGI [19]: > 100 µM

CN(CCC(=O)O)C1=Nc2ccc(Cl)cc2C(c2ccccc2)=[N+]([O-])C1
TGI [1]: > 100 µM
TGI [2]: > 100 µM
TGI [3]: > 100 µM
TGI [4]: > 100 µM
TGI [5]: > 100 µM
TGI [6]: > 100 µM
TGI [7]: > 100 µM
TGI [8]: > 100 µM
TGI [9]: > 100 µM
TGI [10]: > 100 µM
TGI [11]: > 100 µM
TGI [12]: > 100 µM
TGI [13]: > 100 µM
TGI [14]: > 100 µM
TGI [15]: > 100 µM
TGI [16]: > 100 µM
TGI [17]: > 100 µM
TGI [18]: > 100 µM
TGI [19]: > 100 µM

CC(C)(C)C(=O)OCOP(=O)(OCOC(=O)C(C)(C)C)OCC1OC(n2ccc(=O)[nH]c2=O)C(N=[N+]=[N-])C1O (stereo unspecified)
TGI [1]: 11.4 µM
TGI [2]: 1.57 µM
TGI [3]: 15.5 µM
TGI [4]: 15.8 µM
TGI [5]: 31.4 µM
TGI [6]: 16.3 µM
TGI [7]: 12.1 µM
TGI [8]: 3.25 µM
TGI [9]: 14 µM
TGI [10]: 12.9 µM
TGI [11]: 14.1 µM
TGI [12]: 17.8 µM
TGI [13]: 25.4 µM
TGI [14]: 16.8 µM
TGI [15]: 22 µM
TGI [16]: 25.7 µM
TGI [17]: 18.2 µM
TGI [18]: 11.7 µM
TGI [19]: 4.58 µM

CCC/C=C/c1cc2c(cc1O)CC[C@@H]1[C@@H]2CC[C@]2(C)[C@@H](O)CC[C@@H]12
TGI [1]: 32.9 µM
TGI [2]: 30.3 µM
TGI [3]: 32.1 µM
TGI [4]: 28.3 µM
TGI [5]: 42.5 µM
TGI [6]: 35.9 µM
TGI [7]: 33 µM
TGI [8]: 47 µM
TGI [9]: 44.9 µM
TGI [10]: 64.2 µM
TGI [11]: 31 µM
TGI [12]: 42.6 µM
TGI [13]: 34.9 µM
TGI [14]: 30.2 µM
GI50 [15]: 17.1 µM
TGI [15]: 32.4 µM
TGI [16]: > 56.6 µM
TGI [17]: 37.4 µM
TGI [18]: 77.1 µM
TGI [19]: 31 µM

CC(=O)c1sc2c(c1OC(=O)c1ccco1)c(=O)n(-c1ccccc1)c(=S)n2-c1ccccc1
TGI [1]: > 100 µM
TGI [2]: 37.9 µM
TGI [3]: 61.7 µM
TGI [4]: 82.6 µM
TGI [5]: 53.8 µM
TGI [6]: 73.8 µM
TGI [7]: > 100 µM
TGI [8]: > 100 µM
TGI [9]: 95 µM
TGI [10]: > 100 µM
TGI [11]: 64.2 µM
TGI [12]: 87.2 µM
TGI [13]: 49.2 µM
TGI [14]: 18.9 µM
TGI [15]: > 100 µM
TGI [16]: 88.2 µM
TGI [17]: > 100 µM
TGI [18]: 36.4 µM
TGI [19]: 49.3 µM

C[N+](C)(C)CCCSc1nc2ccccc2[nH]1
TGI [1]: > 100 µM
TGI [2]: > 100 µM
TGI [3]: > 100 µM
TGI [4]: > 100 µM
TGI [5]: > 100 µM
TGI [6]: > 100 µM
TGI [7]: > 100 µM
TGI [8]: > 100 µM
TGI [9]: > 100 µM
TGI [10]: > 100 µM
TGI [11]: > 100 µM
TGI [12]: > 100 µM
TGI [13]: > 100 µM
TGI [14]: > 100 µM
TGI [15]: > 100 µM
TGI [16]: > 100 µM
TGI [17]: > 100 µM
TGI [18]: > 100 µM
TGI [19]: > 100 µM

COC1(C)CP(=O)(OC(C)C)CC(C)=C1Cl (stereo unspecified)
TGI [1]: 26.5 µM
TGI [2]: 40.8 µM
TGI [3]: > 100 µM
TGI [4]: 47.7 µM
TGI [5]: > 100 µM
TGI [6]: 32.4 µM
TGI [7]: 66.3 µM
TGI [8]: 24.2 µM
TGI [9]: 28.6 µM
TGI [10]: > 100 µM
TGI [11]: 77.9 µM
TGI [12]: > 100 µM
TGI [13]: 51 µM
TGI [14]: 26.6 µM
TGI [15]: 45.8 µM
TGI [16]: 63.7 µM
TGI [17]: 32.4 µM
TGI [18]: 55.6 µM
TGI [19]: 34.2 µM

COc1ccc2c(c1)-c1nc(=S)n(CCCN(C)C)c3ccc([N+](=O)[O-])c(c13)N2
TGI [1]: 1.95 µM
TGI [2]: 2.33 µM
TGI [3]: 16.7 µM
TGI [4]: 2.2 µM
TGI [5]: 2.15 µM
TGI [6]: 4.31 µM
TGI [7]: 10.3 µM
TGI [8]: 18.5 µM
TGI [9]: 2.52 µM
TGI [10]: 6.5 µM
TGI [11]: 17.4 µM
TGI [12]: 21.7 µM
TGI [13]: 21.2 µM
TGI [14]: 10.1 µM
TGI [15]: 10.3 µM
TGI [16]: 11 µM
TGI [17]: 7.18 µM
TGI [18]: 40.8 µM
TGI [19]: 1.82 µM

COc1cc2ncnc(Nc3cccc(Cl)c3)c2cc1OC
TGI [1]: 34.9 µM
TGI [2]: 19.8 µM
TGI [3]: 34.1 µM
TGI [4]: 42.6 µM
TGI [5]: 54.2 µM
TGI [6]: 44.5 µM
TGI [7]: 40.7 µM
TGI [8]: 35.8 µM
TGI [9]: 75.8 µM
TGI [10]: 26.1 µM
TGI [11]: 70.2 µM
TGI [12]: 53.9 µM
TGI [13]: 42.4 µM
TGI [14]: 17.4 µM
TGI [15]: 45.8 µM
TGI [16]: 82.1 µM
TGI [17]: 45 µM
TGI [18]: > 67.1 µM
TGI [19]: 44 µM

COC(=O)CC(c1cn(S(=O)(=O)c2ccc(C)cc2)c2ccccc12)C1C[C@@H](C(=O)OC)N(C(=O)OC(C)(C)C)C1=O (stereo partly specified)
TGI [1]: > 100 µM
TGI [2]: > 100 µM
TGI [3]: > 100 µM
TGI [4]: > 100 µM
TGI [5]: 21 µM
TGI [6]: > 100 µM
TGI [7]: > 100 µM
TGI [8]: > 100 µM
TGI [9]: > 100 µM
TGI [10]: > 100 µM
TGI [11]: > 100 µM
TGI [12]: > 100 µM
TGI [13]: > 100 µM
TGI [14]: > 100 µM
TGI [15]: > 100 µM
TGI [16]: > 100 µM
TGI [17]: > 100 µM
TGI [18]: > 100 µM
TGI [19]: > 100 µM

COc1ccc(N2C(=O)/C(=C/c3ccc(N(CCC#N)CCC#N)cc3C)N=C2c2cc([N+](=O)[O-])ccc2Cl)cc1
TGI [1]: 9.95 µM
TGI [2]: > 56.2 µM
TGI [3]: 6.1 µM
TGI [4]: 4.98 µM
TGI [5]: 53.5 µM
TGI [6]: > 61.6 µM
TGI [7]: > 56.2 µM
TGI [8]: 11.3 µM
TGI [9]: > 46.4 µM
TGI [10]: 45.7 µM
TGI [11]: > 46.4 µM
TGI [12]: > 63.1 µM
TGI [13]: 5.8 µM
TGI [14]: 51.8 µM
TGI [15]: > 56.2 µM
TGI [16]: 28.9 µM
TGI [17]: > 56.2 µM
TGI [18]: > 100 µM
TGI [19]: > 63.1 µM

C/C(Cl)=N/OC(=O)Nc1ccc(S(N)(=O)=O)c(C)c1
TGI [1]: > 77.7 µM
TGI [2]: 4.5 µM
TGI [3]: 29.6 µM
TGI [4]: 24.4 µM
TGI [5]: 6.12 µM
TGI [6]: 39.3 µM
TGI [7]: > 100 µM
TGI [8]: 8.9 µM
TGI [9]: 29.3 µM
TGI [10]: > 56.2 µM
TGI [11]: 32.3 µM
TGI [12]: > 61.3 µM
TGI [13]: 45.3 µM
TGI [14]: 26.1 µM
TGI [15]: 26.8 µM
TGI [16]: 32.3 µM
TGI [17]: 3.27 µM
TGI [18]: 9.98 µM
TGI [19]: 28.1 µM
